Measured values from patent US12344610B2, “APOL1 inhibitors and methods of use” (Maze Therapeutics, Inc., priority 2022, dated 2025).
Read-outs that look alike come from different tables or passages of the source.

Tests used:
Format in all cases: cell-based
[1] = test system: Trypanosoma brucei Lister 427 VSG221 with APOL1 G1 recombinant protein; assay: APOL1 G1 trypanosome cell rescue assay (Example B5); conditions: geometric mean of at least 2 assay runs, † = single assay run
Protocol: (§1) APOL1 G0/G1/G2 viability assay for measurement of cytotoxicity reversal by compound in trypanosomes (APOL1 G0/G1/G2 trypanosome cell rescue assay).
(§2) APOL1 protein expression and purification. The mature from of APOL1 proteins, residues 28-398, were expressed from a pET28a vector with an N-terminal His-tag and TEV cleavage site. Proteins were expressed in Escherichia coli BL21-CodonPlus (DE3)-RIPL cells. Liter cultures of terrific broth were grown at 37° C. until an OD600 of ˜0.8 was reached and then induced with isopropyl β-D-1-thiogalactopyranoside (IPTG; final concentration of 500 μM). Afterwards, cultures were grown for 3 hours at 37° C. For protein purification, cell pellets were resuspended in lysis buffer (50 mM Tris, pH 8.5, 5 mM EDTA, 0.5 mM DTT, 0.5 mM PMSF) supplemented with a cocktail of protease inhibitors. Cells were lysed by sonication, centrifuged, and the resulting pellet was collected. The homogenized pellet was resuspended in wash buffer (50 mM Tris, pH 8.5, 0.5 M NaCl, 5 mM EDTA, 0.5 mM DTT, 0.5 mM PMSF, protease inhibitor cocktail) and collected by centrifugation. Inclusion body dissolution was then conducted as previously reported (PNAS 112(9) (2015) 2894-2899; www.pnas.org/cgi/doi/10.1073/pnas.1421953112; herein incorporated by reference in its entirety). The solubilized APOL1 protein was applied to a nickel column (HisTrap, GE Life Sciences) preequilibrated in buffer A (50 mM Tris, pH 8.5, 0.15 M NaCl, 1% zwittergent 3-14, protease inhibitor cocktail). The resin was washed with buffer B (50 mM Tris, pH 8.5, 0.15 M NaCl, 0.1% DDM) and TEV cleavage was conducted on column overnight. Afterwards, the column was washed with buffer B, followed by His-washing buffer (50 mM Tris, pH 8.5, 0.15 M NaCl, 0.1% DDM, 10 mM imidazole). The protein was then removed from the resin using His-elution buffer (50 mM Tris, pH 8.5, 0.15 M NaCl, 0.1% DDM, 250 mM imidazole). The sample was further purified by size exclusion chromatography using a Superdex 200 Increase column (GE Life Sciences) in 50 mM Tris, pH 8.5, 0.15 M NaCl, and 0.1% DDM buffer. All APOL1 proteins (G0, G1, and G2) were generated at Viva Biotech (Shanghai) Ltd.
(§3) Modified HMI-9 media preparation (https://tryps.rockefeller.edu/trypsru2_culture_media_preparation.html; herein incorporated by reference in its entirety). Trypanosomes were cultured in modified HMI-9 media consisting of IMDM (ThermoFisher, 12440053), 10% heat-inactivated FBS (Gibco, 10082-147), 10% Serum Plus (Sigma-Aldrich, 14008C), 1×HMI-9 supplement stock, and 1% hypoxanthine stock. The 10×HMI-9 supplement stock was made by dissolving 280 mg bathocuproine disulfonic acid (Sigma-Aldrich, 146625), 1820 mg cysteine (add after bathocuproine) (Sigma-Aldrich, 30089), 1100 mg pyruvic acid (Sigma-Aldrich, 107360), 100 mg uracil (Sigma-Aldrich, U0750), 100 mg cytosine (Sigma-Aldrich, C3506) and 140 μL 2-mercaptoethanol (Sigma-Aldrich, M3148) in 1000 mL of water. The resulting solution was aliquoted and stored at −20° C. The hypoxanthine stock was made by dissolving 4 g of NaOH into 1000 mL of water. Afterwards, 13.6 g hypoxanthine (Sigma-Aldrich, H9377) was added to this mixture. The resulting solution was aliquoted and stored at −20° C.
(§4) Assay Setup. Trypanosoma brucei Lister 427 VSG221 (ATCC, PRA-382) cells were cultured in modified HMI-9 media. All experiments were performed in 384-well, white, solid bottom, tissue culture treated plates (Greiner, 781080). Assay ready plates were generated with duplicate 11-point compound dilution series that consisted of 2-fold stepwise dilutions (0.4% DMSO final). To each well, was added 20 μL of 2 μg/mL of APOL1 G0, G1, or G2 recombinant protein in modified HMI-9 media using a MultiDrop Combi (final APOL1 protein concentration=[…]). Trypanosomes were counted using a hemacytometer and diluted in modified HMI-9 media to a concentration of 1.25×10^4 cell/mL. […]

[2] = test system: HEK293 cells overexpressing APOL1 G2; assay: APOL1 G2 HEK293 cell rescue assay (reversal of cell death caused by overexpression of APOL1); conditions: geometric mean of at least 2 assay runs, † = single assay run
Summary of the method: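 EC50 is the half-maximal effective concentration for reversing cell death driven by APOL1 G2 overexpression in HEK293 cells. Reported as geometric mean of at least 2 runs on separate days, each run averaging duplicate wells per plate; some values from a single run.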

[3] = test system: HEK293 clonal cell line overexpressing APOL1 G1; assay: APOL1 G1 HEK293 cell rescue assay (Example B3); conditions: Homo sapiens, HEK293, HEK293 clonal line overexpressing APOL1 G1; geometric mean of at least 2 runs; † = single run; ¥ = concentration at 50% rescue estimated (no sigmoidal curve)
Summary of the method: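 HEK293 clonal line overexpressing APOL1 G1; EC50 is half-maximal reversal of APOL1-induced cell death. Values are the geometric mean of ≥2 runs on separate days, each run the average of duplicate wells. Where no sigmoidal curve could be fitted, the concentration giving 50% rescue was estimated.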

[4] = test system: Trypanosoma brucei Lister 427 VSG221 with APOL1 G2 recombinant protein; assay: APOL1 G2 trypanosome cell rescue assay (Example B5); conditions: geometric mean of at least 2 assay runs, † = single assay run
Protocol: as §1, §2, §3, §4

[5] = test system: Trypanosoma brucei Lister 427 VSG221 with APOL1 G0 recombinant protein; assay: APOL1 G0 trypanosome cell rescue assay (Example B5); conditions: geometric mean of at least 2 assay runs, † = single assay run
Protocol: as §1, §2, §3, §4

[6] = Trypanosoma brucei, 20 h, read-out: APOL1 G1 Trypanosome Rescue EC50, Trypanosoma brucei Lister 427 VSG221 with APOL1 G1 recombinant protein, 20 hours, CellTiter-Glo
[7] = Homo sapiens, HEK293, HEK293 overexpressing APOL1 G2
[8] = Trypanosoma brucei, 20 h, read-out: APOL1 G2 Trypanosome Rescue EC50, Trypanosoma brucei Lister 427 VSG221 with APOL1 G2 recombinant protein, 20 hours, CellTiter-Glo
[9] = Trypanosoma brucei, 20 h, read-out: APOL1 G0 Trypanosome Rescue EC50, Trypanosoma brucei Lister 427 VSG221 with APOL1 G0 recombinant protein, 20 hours, CellTiter-Glo

| SMILES | EC50 [1, 6] [nM] | EC50 [2, 7] [nM] | EC50 [3] [nM] | EC50 [4, 8] [nM] | EC50 [5, 9] [nM] | EC50 ([1]; read-out: APOL1 G1 Trypanosome Rescue EC50, Trypanosoma brucei Lister 427 VSG221 with APOL1 G1 recombinant protein, 20 hours, CellTiter-Glo) [nM] | EC50 ([2]; HEK293 overexpressing APOL1 G2) [nM] | EC50 ([4]; read-out: APOL1 G2 Trypanosome Rescue EC50, Trypanosoma brucei Lister 427 VSG221 with APOL1 G2 recombinant protein, 20 hours, CellTiter-Glo) [nM] | EC50 ([5]; read-out: APOL1 G0 Trypanosome Rescue EC50, Trypanosoma brucei Lister 427 VSG221 with APOL1 G0 recombinant protein, 20 hours, CellTiter-Glo) [nM] |
| --- | --- | --- | --- | --- | --- | --- | --- | --- | --- |
| CC(=O)c1ncc(OCCN2CCC3(CC2)C(=O)Nc2ccc(C(F)F)cc23)cc1C(F)(F)F [Compound 295, 1′-(2-{[6-acetyl-5-(trifluoromethyl)pyridin-3-yl]oxy}ethyl)-5-(difluoromethyl)-1,2-dihydrospiro[indole-3,4′-piperidin]-2-one] | 40.2 | 43.6 | 112 | 11.1 | 32.6 | – | – | – | – |
| O=C1CCc2cc(OCCN3CCC4(CC3)C(=O)Nc3ccc(C(F)F)cc34)cnc2N1C1CC(CO)C1 (single isomer, unassigned) [Compound 309, 5-(difluoromethyl)-1′-[2-({7-oxo-8-[(cis) or (trans)-3-(hydroxymethyl)cyclobutyl]-5,6,7,8-tetrahydro-1,8-naphthyridin-3-yl}oxy)ethyl]-1,2-dihydrospiro[indole-3,4′-piperidin]-2-one] | 70.6 | 55.9 | 134 | 23.4 | 58.2 | – | – | – | – |
| O=C1CCc2cc(OCCN3CCC4(CC3)C(=O)Nc3ccc(Cl)cc34)cnc2N1[C@H]1C[C@](O)(C2CC2)C1 (single isomer, unassigned) [Compound 398, 5-chloro-1′-[2-({7-oxo-8-[(cis)-3-cyclopropyl-3-hydroxycyclobutyl]-5,6,7,8-tetrahydro-1,8-naphthyridin-3-yl}oxy)ethyl]-1,2-dihydrospiro[indole-3,4′-piperidin]-2-one] | 52.2 | 20.1 | 374 | 18 | 53.6 | – | – | – | – |
| CC1(O)CN(c2ncc(OCCN3CCC4(CC3)C(=O)Nc3ccc(Cl)cc34)cc2C(F)(F)F)C1 [Compound 405, 5-chloro-1′-(2-{[6-(3-hydroxy-3-methylazetidin-1-yl)-5-(trifluoromethyl)pyridin-3-yl]oxy}ethyl)-1,2-dihydrospiro[indole-3,4′-piperidin]-2-one] | 21.6 | 9.59 | 19.2 | 8.06 | 20 | – | – | – | – |
| O=C(NC1CCS(=O)(=O)C1)c1ccc(OCCN2CCC3(CC2)C(=O)Nc2ccc(Cl)cc23)cc1F (centres unmarked) [Compound 241, 4-(2-{5-chloro-2-oxo-1,2-dihydrospiro[indole-3,4′-piperidin]-1′-yl}ethoxy)-N-(1,1-dioxo-1λ^6-thiolan-3-yl)-2-fluorobenzamide] | 258 | 72.1 | 217 | 63.3 | 177 | – | – | – | – |
| C[C@]1(O)C[C@@H](n2c(=O)ccc3cc(OCCN4CCC5(CC4)C(=O)Nc4ccc(C#N)cc45)cnc32)C1 [Compound 406, 2-oxo-1′-[2-({7-oxo-8-[(cis)-3-hydroxy-3-methylcyclobutyl]-7,8-dihydro-1,8-naphthyridin-3-yl}oxy)ethyl]-1,2-dihydrospiro[indole-3,4′-piperidine]-5-carbonitrile] | 128 | 58.3 | 109 | 51.1 | 107 | – | – | – | – |
| CC1(O)CC(c2ncc(OCCN3CCC4(CC3)C(=O)Nc3ccc(Cl)cc34)cn2)C1 (single isomer, unassigned) [Compound 392, 5-chloro-1′-[2-({2-[(trans) or (cis)-3-hydroxy-3-methylcyclobutyl)pyrimidin-5-yl}oxy)ethyl]-1,2-dihydrospiro[indole-3,4′-piperidin]-2-one] | – | – | 89.9 | – | – | 79.4 | 27.1 | 28.5 | 70 |
| C[C@]1(O)C[C@@H](n2cnc3cc(OCCN4CCC5(CC4)C(=O)Nc4ccc(Cl)cc45)cnc32)C1 [Compound 367, 5-chloro-1′-[2-({3-[(cis)-3-hydroxy-3-methylcyclobutyl]-3H-imidazo[4,5-b]pyridin-6-yl}oxy)ethyl]-1,2-dihydrospiro[indole-3,4′-piperidin]-2-one] | 323 | 87.7 | 145 | 106 | 231 | – | – | – | – |
| CC1(O)CC(n2ncc3cc(OCCN4CCC5(CC4)C(=O)Nc4ccc(Cl)cc45)cnc32)C1 (centres unmarked) [Compound 407, 5-chloro-1′-(2-{[1-(3-hydroxy-3-methylcyclobutyl)-1H-pyrazolo[3,4-b]pyridin-5-yl]oxy}ethyl)-1,2-dihydrospiro[indole-3,4′-piperidin]-2-one] | 99.7 | 24.1 | 46.3 | 33 | 72.4 | – | – | – | – |
| CC1(O)CC(CN2C(=O)CCc3cc(OCCN4CCC5(CC4)C(=O)Nc4ccc(C(F)F)cc45)cnc32)C1 (single isomer, unassigned) [Compound 311, 5-(difluoromethyl)-1′-{2-[(7-oxo-8-{[(cis) or (trans)-3-hydroxy-3-methylcyclobutyl]methyl}-5,6,7,8-tetrahydro-1,8-naphthyridin-3-yl)oxy]ethyl}-1,2-dihydrospiro[indole-3,4′-piperidin]-2-one] | 50.3 | 38.3 | 100 | 13.8 | 37.4 | – | – | – | – |
